Values of other authors in patent publication US20110293691A1, “MULTIMODAL ADHESION BARRIER” (priority 2010, published 2011).

System: rat model
Details: oral or intraperitoneal, about one week prior to surgery and three weeks postoperatively

SMILES: O=C(CC1NCCCC1O)Cn1cnc2cc(Br)c(Cl)cc2c1=O (stereo not shown) [Halofuginone, 7-bromo-6-chloro-3-[3-(3-hydroxy-2-piperidinyl)-2-oxopropyl]-4(3H)]
- prevention of adhesions (in words): prevent adhesions in a rat model in a dose dependent manner
